Data published in the NIST ThermoML archive (doi:10.1016/j.fluid.2007.05.029).
± gives the expanded uncertainty stated by the source.

Legend:
[1] = xn = mol fraction of the nth substance listed

CCCCC(O)CO (centres undefined) [1,2-hexanediol]
Settings | surface tension liquid-gas [mN/m]
283.15 K | 24.7 ± 0.8
288.15 K | 24.4 ± 0.8
293.15 K | 24.1 ± 0.8
298.15 K | 23.8 ± 0.8
303.15 K | 23.6 ± 0.8
308.15 K | 23.3 ± 0.8

CC(O)CCCCO (centres undefined) [1,5-hexanediol]
Settings | surface tension liquid-gas [mN/m]
283.15 K | 34.6 ± 0.9
288.15 K | 34.3 ± 0.8
293.15 K | 34.1 ± 0.8
298.15 K | 33.9 ± 0.8
303.15 K | 33.7 ± 0.8
308.15 K | 33.5 ± 0.8

CC(O)CCC(C)O (centres undefined) [2,5-hexanediol]
Settings | surface tension liquid-gas [mN/m]
283.15 K | 32.3 ± 0.8
288.15 K | 32 ± 0.8
293.15 K | 31.9 ± 0.8
298.15 K | 31.6 ± 0.8
303.15 K | 31.3 ± 0.8
308.15 K | 31 ± 0.8

CC(O)CCC(C)O (centres undefined) [2,5-hexanediol] + O
surface tension liquid-gas [mN/m], [1]
Settings | 283.15 K | 288.15 K | 293.15 K | 298.15 K | 303.15 K | 308.15 K
x1 = 0.001 | 68.5 ± 1.1 | 67.9 ± 1 | 67.7 ± 1 | 67.2 ± 1 | 66.6 ± 1 | 65.9 ± 1
x1 = 0.0027 | 60.2 ± 1 | 59.6 ± 1 | 59.1 ± 1 | 58.6 ± 1 | 57.9 ± 1 | 57.3 ± 1
x1 = 0.0037 | 56.9 ± 1 | 56.3 ± 1 | 55.6 ± 1 | 55.2 ± 1 | 54.7 ± 1 | 54.2 ± 1
x1 = 0.0068 | 53.5 ± 1 | 52.9 ± 0.9 | 52.3 ± 0.9 | 51.6 ± 0.9 | 51.2 ± 0.9 | 50.7 ± 0.9
x1 = 0.0088 | 51.6 ± 0.9 | 51 ± 0.9 | 50.3 ± 0.9 | 49.5 ± 0.9 | 48.6 ± 0.9 | 48 ± 0.9
x1 = 0.0103 | 50 ± 0.9 | 49.4 ± 0.9 | 49.2 ± 0.9 | 48.7 ± 0.9 | 48.2 ± 0.9 | 47.8 ± 0.9
x1 = 0.0135 | 47.9 ± 0.9 | 47.5 ± 0.9 | 47.2 ± 0.9 | 46.8 ± 0.9 | 46.3 ± 0.9 | 45.8 ± 0.9
x1 = 0.0168 | 46.1 ± 0.9 | 45.7 ± 0.9 | 45.5 ± 0.9 | 45.2 ± 0.9 | 44.9 ± 0.9 | 44.6 ± 0.9
x1 = 0.0263 | 43.4 ± 0.9 | 43.2 ± 0.9 | 42.7 ± 0.9 | 42.1 ± 0.9 | 41.6 ± 0.9 | 41.3 ± 0.9
x1 = 0.037 | 41.5 ± 0.9 | 41.1 ± 0.9 | 40.4 ± 0.9 | 40 ± 0.9 | 39.7 ± 0.9 | 39.2 ± 0.9
x1 = 0.0462 | 40.4 ± 0.9 | 40.1 ± 0.9 | 39.7 ± 0.9 | 39 ± 0.9 | 38.7 ± 0.9 | 38.2 ± 0.9
x1 = 0.063 | 39.1 ± 0.9 | 38.6 ± 0.9 | 38.1 ± 0.9 | 37.4 ± 0.9 | 37.1 ± 0.8 | 36.6 ± 0.8
x1 = 0.0808 | 38.5 ± 0.9 | 38 ± 0.9 | 37.5 ± 0.9 | 37 ± 0.8 | 36.5 ± 0.8 | 36.2 ± 0.8
x1 = 0.096 | 38.3 ± 0.9 | 37.8 ± 0.9 | 37.3 ± 0.9 | 36.8 ± 0.8 | 36.3 ± 0.8 | 36 ± 0.8
x1 = 0.1117 | 37.7 ± 0.9 | 37.2 ± 0.9 | 36.9 ± 0.8 | 36.2 ± 0.8 | 35.9 ± 0.8 | 35.6 ± 0.8
x1 = 1 | 32.3 ± 0.8 | 32 ± 0.8 | 31.9 ± 0.8 | 31.6 ± 0.8 | 31.3 ± 0.8 | 31 ± 0.8

O [water]
Settings | surface tension liquid-gas [mN/m]
283.15 K | 74.1 ± 1.1
288.15 K | 73.4 ± 1.1
293.15 K | 72.6 ± 1.1
298.15 K | 71.8 ± 1.1
303.15 K | 71 ± 1.1
308.15 K | 70.2 ± 1.1

O [water] + CC(O)CCC(C)O
[1], x2 = 0
Settings | surface tension liquid-gas [mN/m]
283.15 K | 74.1 ± 1.1
288.15 K | 73.4 ± 1.1
293.15 K | 72.6 ± 1.1
298.15 K | 71.8 ± 1.1
303.15 K | 71 ± 1.1
308.15 K | 70.2 ± 1.1

O [water] + CC(O)CCCCO
[1], x2 = 0
Settings | surface tension liquid-gas [mN/m]
283.15 K | 74.1 ± 1.1
288.15 K | 73.4 ± 1.1
293.15 K | 72.6 ± 1.1
298.15 K | 71.8 ± 1.1
303.15 K | 71 ± 1.1
308.15 K | 70.2 ± 1.1

O [water] + CCCCC(O)CO
[1], x2 = 0
Settings | surface tension liquid-gas [mN/m]
283.15 K | 74.1 ± 1.1
288.15 K | 73.4 ± 1.1
293.15 K | 72.6 ± 1.1
298.15 K | 71.8 ± 1.1
303.15 K | 71 ± 1.1
308.15 K | 70.2 ± 1.1

O [water] + OCCCCCCO
[1], x2 = 0
Settings | surface tension liquid-gas [mN/m]
283.15 K | 74.1 ± 1.1
288.15 K | 73.4 ± 1.1
293.15 K | 72.6 ± 1.1
298.15 K | 71.8 ± 1.1
303.15 K | 71 ± 1.1
308.15 K | 70.2 ± 1.1
